# Experimental data as given in article PMC4014698 (Pharmaceuticals, 2014).
# Non-standard residues stand in square brackets, D forms with d. Residues, ends and D or L forms follow the SMILES beside them.
# Tests used:
# human erythrocytes [1] = experiment: Hemolytic activity (HC50); assay type: cell-based; conditions: 18 hours at 37 °C; human red blood cells; Figure 8, 100% control 0.1% Triton-X 100
# Procedure: Hemoglobin release was determined spectrophotometrically at 570 nm.
# From these plots, the HC50 values, the peptide concentration that produces 50% hemolysis of human red blood cells after 18 hours in the standard microtiter dilution method was determined.
# human erythrocytes [2] = experiment: Hemolytic activity (HC50); assay type: cell-based; conditions: 1 hour incubation at 37 °C; human red blood cells; Figure 8, 100% control 0.1% Triton-X 100
smiles,measurement,setting,value
CC[C@@H](C)[C@@H](NC(=O)[C@H]1CCCN1C(=O)[C@@H](CCCNC(=N)N)NC(=O)[C@@H](Cc1ccccc1)NC(=O)[C@H](NC(=O)[C@@H](Cc1c[nH]cn1)NC(=O)[C@@H](Cc1c[nH]cn1)NC(=O)[C@@H](Cc1ccccc1)NC(=O)[C@H](N)Cc1ccccc1)[C@H](C)CC)C(=O)N[C@@H](C(=O)N[C@H](Cc1c[nH]cn1)C(=O)N[C@@H](C(=O)NCC(=O)N[C@H](CCCCN)C(=O)N[C@@H](C(=O)N[C@@H](C(=O)N[C@H](Cc1c[nH]cn1)C(=O)N[C@H](CCCNC(=N)N)C(=O)N[C@H](CC(C)C)C(=O)N[C@@H](C(=O)N[C@@H](C(=O)NCC(N)=O)[C@H](C)O)C(C)C)[C@H](C)CC)[C@H](C)O)C(C)C)C(C)C [D-Piscidin 1 G8P] (H-[dF][dF][dH][dH][dI][dF][dR][dP][dI][dV][dH][dV]G[dK][dT][dI][dH][dR][dL][dV][dT]G-NH2),"Hemolytic activity HC50, 18 hours (Figure 8 comparison)",human erythrocytes [1],8 µM
same,"Hemolytic activity HC50, 1 hour",human erythrocytes [2],55 µM
